Results reported in BindingDB's records for doi:10.1016/j.bmc.2012.05.068 (Duquesne University, 2012).

Tests used:
[1] = molecular target: Dihydroorotate dehydrogenase (quinone), mitochondrial (Homo sapiens, UniProt Q02127); experiment: Inhibition of human DHODH
[2] = molecular target: T1, Bifunctional dihydrofolate reductase-thymidylate synthase (Toxoplasma gondii, UniProt Q07422); experiment: Inhibition of Toxoplasma gondii DHFR
T1 sequence (Q07422 whole entry): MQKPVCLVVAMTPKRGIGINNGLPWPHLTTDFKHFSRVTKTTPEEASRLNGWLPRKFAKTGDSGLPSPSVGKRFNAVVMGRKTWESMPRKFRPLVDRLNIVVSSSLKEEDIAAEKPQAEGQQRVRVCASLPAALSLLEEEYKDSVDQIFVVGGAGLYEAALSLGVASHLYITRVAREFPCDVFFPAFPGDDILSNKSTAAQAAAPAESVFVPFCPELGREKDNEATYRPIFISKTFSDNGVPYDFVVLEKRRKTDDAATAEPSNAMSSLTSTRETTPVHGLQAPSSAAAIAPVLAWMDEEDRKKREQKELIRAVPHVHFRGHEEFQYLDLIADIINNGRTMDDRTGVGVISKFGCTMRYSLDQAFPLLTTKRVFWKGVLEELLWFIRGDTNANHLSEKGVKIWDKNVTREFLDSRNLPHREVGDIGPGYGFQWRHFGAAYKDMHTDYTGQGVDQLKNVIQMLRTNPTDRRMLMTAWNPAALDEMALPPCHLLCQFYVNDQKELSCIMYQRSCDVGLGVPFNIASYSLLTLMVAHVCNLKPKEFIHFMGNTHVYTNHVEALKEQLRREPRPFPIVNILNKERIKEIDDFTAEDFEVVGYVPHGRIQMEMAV

[3] = molecular target: T1, Bifunctional dihydrofolate reductase-thymidylate synthase; experiment: Inhibition of Toxoplasma gondii thymidylate synthase
[4] = molecular target: Thymidylate synthase (Homo sapiens, UniProt P04818); experiment: Inhibition of human thymidylate synthase
Thymidylate synthase, sequence (P04818 whole entry): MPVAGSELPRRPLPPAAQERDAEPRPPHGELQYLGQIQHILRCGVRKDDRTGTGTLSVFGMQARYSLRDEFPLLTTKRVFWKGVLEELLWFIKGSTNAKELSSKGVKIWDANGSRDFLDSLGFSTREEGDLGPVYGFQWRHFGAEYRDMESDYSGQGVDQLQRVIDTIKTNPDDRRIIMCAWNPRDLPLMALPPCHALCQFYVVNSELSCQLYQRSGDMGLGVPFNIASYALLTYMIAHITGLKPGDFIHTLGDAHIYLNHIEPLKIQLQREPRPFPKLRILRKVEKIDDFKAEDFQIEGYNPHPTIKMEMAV

Dihydroorotate dehydrogenase (quinone), mitochondrial, sequence (Q02127 whole entry): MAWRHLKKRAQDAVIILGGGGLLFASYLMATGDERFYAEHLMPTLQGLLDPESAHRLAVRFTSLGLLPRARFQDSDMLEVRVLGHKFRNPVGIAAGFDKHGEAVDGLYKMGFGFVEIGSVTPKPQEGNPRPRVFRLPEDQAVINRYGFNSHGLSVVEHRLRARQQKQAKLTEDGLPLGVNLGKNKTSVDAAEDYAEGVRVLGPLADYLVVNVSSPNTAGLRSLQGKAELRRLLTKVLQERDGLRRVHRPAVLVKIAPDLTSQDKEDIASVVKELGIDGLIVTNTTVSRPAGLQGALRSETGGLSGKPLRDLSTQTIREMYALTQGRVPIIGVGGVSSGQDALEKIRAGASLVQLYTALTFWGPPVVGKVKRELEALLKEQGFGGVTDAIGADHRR

## Nc1nc2cc3ccccc3c-2c(Nc2ccccc2)[nH]1
[1]
  IC50: > 200 µM

## Nc1nc2cc3ccccc3c-2c(Nc2cccc(Br)c2)[nH]1
[1]
  IC50: > 200 µM
[2]
  IC50: > 14 µM

## Nc1nc2cc3ccccc3c-2c(Nc2ccc(Cl)cc2)[nH]1
[1]
  IC50: > 200 µM
[3]
  IC50: > 14 µM
[2]
  IC50: > 16 µM
[4]
  IC50: > 14 µM

## COc1cccc(Nc2[nH]c(N)nc3cc4ccccc4c2-3)c1
[1]
  IC50: > 200 µM

## CC(C)c1ccc(Nc2[nH]c(N)nc3cc4ccccc4c2-3)cc1
[3]
  IC50: > 14 µM
[2]
  IC50: > 16 µM
[4]
  IC50: > 14 µM

## Nc1nc2cc3ccccc3c-2c(Nc2ccc(F)c(Cl)c2)[nH]1
[3]
  IC50: > 13 µM
[2]
  IC50: > 16 µM
[4]
  IC50: > 13 µM

## Nc1nc2cc3ccccc3c-2c(Nc2ccc(Cl)cc2F)[nH]1
[1]
  IC50: > 200 µM
[3]
  IC50: > 13 µM
[2]
  IC50: > 16 µM
[4]
  IC50: > 13 µM

## Nc1nc2cc3ccccc3c-2c(Nc2cccc(F)c2)[nH]1
[1]
  IC50: > 200 µM
